From patent US20260007681A1, “INDOLE DERIVATIVES AS ESTROGEN RECEPTOR DEGRADERS” (REGENTS OF THE UNIVERSITY OF MICHIGAN, priority 2022, published 2026)

Target: ER (Homo sapiens (Human), UniProt P03372)
Experiment: Western blot analysis (Compounds B1-B278)
Type: cell-based
Details: ER degradation by traditional Western blot; DC50 classes
Procedure, shortened: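 Relative target-protein levels come from densitometry of immunoblots, normalized to GAPDH. Lysates from treated cells were prepared in RIPA buffer (pH 7.6) containing protease inhibitors, and equal protein amounts, checked by BCA, were separated on 10% gels and blotted onto PVDF.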

Chain of ER (P03372 whole entry): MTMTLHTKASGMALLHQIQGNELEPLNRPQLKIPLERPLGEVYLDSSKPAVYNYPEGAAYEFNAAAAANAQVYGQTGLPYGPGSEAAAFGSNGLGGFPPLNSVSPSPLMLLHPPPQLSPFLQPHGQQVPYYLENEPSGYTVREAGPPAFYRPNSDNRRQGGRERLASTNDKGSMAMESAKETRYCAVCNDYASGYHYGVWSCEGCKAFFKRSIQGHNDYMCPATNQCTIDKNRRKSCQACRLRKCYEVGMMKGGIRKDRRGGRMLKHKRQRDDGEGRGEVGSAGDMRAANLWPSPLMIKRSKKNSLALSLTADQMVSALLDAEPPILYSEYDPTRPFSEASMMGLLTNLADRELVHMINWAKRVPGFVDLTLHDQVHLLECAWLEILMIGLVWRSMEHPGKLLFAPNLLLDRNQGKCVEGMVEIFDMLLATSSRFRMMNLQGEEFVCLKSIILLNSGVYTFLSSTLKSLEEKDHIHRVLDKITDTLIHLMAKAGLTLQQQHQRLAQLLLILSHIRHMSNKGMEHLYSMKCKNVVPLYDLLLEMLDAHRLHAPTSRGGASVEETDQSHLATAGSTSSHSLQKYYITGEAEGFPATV

Row | SMILES | Traditional Western Degradation Potency
1 | C[C@@H]1Cc2c([nH]c3ccccc23)[C@@H](c2cnc(N3CCC4(CC3)CN(C(=O)CN3Cc5cc6c(cc5C3)C(=O)N(C3CCC(=O)NC3=O)C6=O)C4)nc2)N1CC(F)F (stereo partly drawn) [Compound B221, 6-(2-(7-(5-((1R,3R)-2-(2,2-difluoroethyl)-3-methyl-2,3,4,9-tetrahydro-1H-pyrido[3,4-b]indol-1-yl)pyrimidin-2-yl)-2,7-diazaspiro[3.5]nonan-2-yl)-2-oxoethyl)-2-(2,6-dioxopiperidin-3-yl)-6,7-dihydropyrrolo[3,4-f]isoindole-1,3(2H,5H)-dione] | A (“A”: <10 nM)
2 | C[C@@H]1Cc2c([nH]c3ccccc23)[C@@H](c2cnc(N3CCC(C(=O)N4CCC(N5Cc6cc7c(cc6C5)C(=O)N(C5CCC(=O)NC5=O)C7=O)CC4)CC3)nc2)N1CC(F)F (stereo partly drawn) [Compound B222, 6-(1-(1-(5-((1R,3R)-2-(2,2-difluoroethyl)-3-methyl-2,3,4,9-tetrahydro-1H-pyrido[3,4-b]indol-1-yl)pyrimidin-2-yl)piperidine-4-carbonyl)piperidin-4-yl)-2-(2,6-dioxopiperidin-3-yl)-6,7-dihydropyrrolo[3,4-f]isoindole-1,3(2H,5H)-dione] | A (“A”: <10 nM)
3 | C[C@@H]1Cc2c([nH]c3ccccc23)[C@@H](c2cnc(N3CCC(CN4CCC(N5Cc6cc7c(cc6C5)C(=O)N(C5CCC(=O)NC5=O)C7=O)CC4)CC3)nc2)N1CC(F)F (stereo partly drawn) [Compound B223, 6-(1-((1-(5-((1R,3R)-2-(2,2-difluoroethyl)-3-methyl-2,3,4,9-tetrahydro-1H-pyrido[3,4-b]indol-1-yl)pyrimidin-2-yl)piperidin-4-yl)methyl)piperidin-4-yl)-2-(2,6-dioxopiperidin-3-yl)-6,7-dihydropyrrolo[3,4-f]isoindole-1,3(2H,5H)-dione] | B (“B”: 10-100 nM)
4 | C[C@@H]1Cc2c([nH]c3ccccc23)[C@@H](c2ccc(N3CCC4(CC3)CN(C(=O)CN3Cc5cc6c(cc5C3)C(=O)N(C3CCC(=O)NC3=O)C6=O)C4)cc2)N1CC(F)F (stereo partly drawn) [Compound B224, 6-(2-(7-(4-((1R,3R)-2-(2,2-difluoroethyl)-3-methyl-2,3,4,9-tetrahydro-1H-pyrido[3,4-b]indol-1-yl)phenyl)-2,7-diazaspiro[3.5]nonan-2-yl)-2-oxoethyl)-2-(2,6-dioxopiperidin-3-yl)-6,7-dihydropyrrolo[3,4-f]isoindole-1,3(2H,5H)-dione] | B (“B”: 10-100 nM)
5 | C[C@@H]1Cc2c([nH]c3ccccc23)[C@@H](c2ccc(N3CCC(C(=O)N4CCC(N5Cc6cc7c(cc6C5)C(=O)N(C5CCC(=O)NC5=O)C7=O)CC4)CC3)cc2)N1CC(F)F (stereo partly drawn) [Compound B225, 6-(1-(1-(4-((1R,3R)-2-(2,2-difluoroethyl)-3-methyl-2,3,4,9-tetrahydro-1H-pyrido[3,4-b]indol-1-yl)phenyl)piperidine-4-carbonyl)piperidin-4-yl)-2-(2,6-dioxopiperidin-3-yl)-6,7-dihydropyrrolo[3,4-f]isoindole-1,3(2H,5H)-dione] | B (“B”: 10-100 nM)
6 | C[C@@H]1Cc2c([nH]c3ccccc23)[C@@H](c2ccc(N3CCC(CN4CCC(N5Cc6cc7c(cc6C5)C(=O)N(C5CCC(=O)NC5=O)C7=O)CC4)CC3)cc2)N1CC(F)F (stereo partly drawn) [Compound B226, 6-(1-((1-(4-((1R,3R)-2-(2,2-difluoroethyl)-3-methyl-2,3,4,9-tetrahydro-1H-pyrido[3,4-b]indol-1-yl)phenyl)piperidin-4-yl)methyl)piperidin-4-yl)-2-(2,6-dioxopiperidin-3-yl)-6,7-dihydropyrrolo[3,4-f]isoindole-1,3(2H,5H)-dione] | B (“B”: 10-100 nM)
7 | C[C@@H]1Cc2c([nH]c3ccccc23)[C@@H](c2ccc(N3CCC4(CCN(C(=O)CN5Cc6cc7c(cc6C5)C(=O)N(C5CCC(=O)NC5=O)C7=O)CC4)CC3)cc2)N1CC(F)F (stereo partly drawn) [Compound B227, 6-(2-(9-(4-((1R,3R)-2-(2,2-difluoroethyl)-3-methyl-2,3,4,9-tetrahydro-1H-pyrido[3,4-b]indol-1-yl)phenyl)-3,9-diazaspiro[5.5]undecan-3-yl)-2-oxoethyl)-2-(2,6-dioxopiperidin-3-yl)-6,7-dihydropyrrolo[3,4-f]isoindole-1,3(2H,5H)-dione] | B (“B”: 10-100 nM)
8 | C[C@@H]1Cc2c([nH]c3ccccc23)[C@@H](c2ccc(N3CCC4(CCN(C(=O)CN5Cc6cc7c(cc6C5)C(=O)N(C5CCC(=O)NC5=O)C7=O)CC4)CC3)cn2)N1CC(F)F (stereo partly drawn) [Compound B228, 6-(2-(9-(6-((1S,3R)-2-(2,2-difluoroethyl)-3-methyl-2,3,4,9-tetrahydro-1H-pyrido[3,4-b]indol-1-yl)pyridin-3-yl)-3,9-diazaspiro[5.5]undecan-3-yl)-2-oxoethyl)-2-(2,6-dioxopiperidin-3-yl)-6,7-dihydropyrrolo[3,4-f]isoindole-1,3(2H,5H)-dione] | C (“C”: >100 nM)
9 | C[C@@H]1Cc2c([nH]c3ccccc23)[C@@H](c2ccc(N3CCC4(CCN(C(=O)CN5Cc6cc7c(cc6C5)C(=O)N(C5CCC(=O)NC5=O)C7=O)CC4)CC3)nc2)N1CC(F)F (stereo partly drawn) [Compound B229, 6-(2-(9-(5-((1R,3R)-2-(2,2-difluoroethyl)-3-methyl-2,3,4,9-tetrahydro-1H-pyrido[3,4-b]indol-1-yl)pyridin-2-yl)-3,9-diazaspiro[5.5]undecan-3-yl)-2-oxoethyl)-2-(2,6-dioxopiperidin-3-yl)-6,7-dihydropyrrolo[3,4-f]isoindole-1,3(2H,5H)-dione] | B (“B”: 10-100 nM)
10 | C[C@@H]1Cc2c([nH]c3ccccc23)[C@@H](c2ccc(N3CCC4(CCN(CC(=O)N5Cc6cc7c(cc6C5)C(=O)N(C5CCC(=O)NC5=O)C7=O)CC4)CC3)cn2)N1CC(F)F (stereo partly drawn) [Compound B230, 6-(2-(9-(6-((1S,3R)-2-(2,2-difluoroethyl)-3-methyl-2,3,4,9-tetrahydro-1H-pyrido[3,4-b]indol-1-yl)pyridin-3-yl)-3,9-diazaspiro[5.5]undecan-3-yl)acetyl)-2-(2,6-dioxopiperidin-3-yl)-6,7-dihydropyrrolo[3,4-f]isoindole-1,3(2H,5H)-dione] | C (“C”: >100 nM)
11 | C[C@@H]1Cc2c([nH]c3ccccc23)[C@@H](c2ccc(N3CCC4(CCN(C(=O)CN5Cc6cc7c(cc6C5)C(=O)N(C5CCC(=O)NC5=O)C7=O)CC4)CC3)cc2F)N1CC(F)F (stereo partly drawn) [Compound B231, 6-(2-(9-(4-((1R,3R)-2-(2,2-difluoroethyl)-3-methyl-2,3,4,9-tetrahydro-1H-pyrido[3,4-b]indol-1-yl)-3-fluorophenyl)-3,9-diazaspiro[5.5]undecan-3-yl)-2-oxoethyl)-2-(2,6-dioxopiperidin-3-yl)-6,7-dihydropyrrolo[3,4-f]isoindole-1,3(2H,5H)-dione] | B (“B”: 10-100 nM)
12 | C[C@@H]1Cc2c([nH]c3ccccc23)[C@@H](c2ccc(N3CCC(C(=O)N4CCC(N5Cc6cc7c(cc6C5)C(=O)N(C5CCC(=O)NC5=O)C7=O)CC4)CC3)cc2F)N1CC(F)F (stereo partly drawn) [Compound B232, 6-(1-(1-(4-((1R,3R)-2-(2,2-difluoroethyl)-3-methyl-2,3,4,9-tetrahydro-1H-pyrido[3,4-b]indol-1-yl)-3-fluorophenyl)piperidine-4-carbonyl)piperidin-4-yl)-2-(2,6-dioxopiperidin-3-yl)-6,7-dihydropyrrolo[3,4-f]isoindole-1,3(2H,5H)-dione] | A (“A”: <10 nM)
13 | C[C@@H]1Cc2c([nH]c3ccccc23)[C@@H](c2ccc(C3CCC(C(=O)N4CCC(N5Cc6cc7c(cc6C5)C(=O)N(C5CCC(=O)NC5=O)C7=O)CC4)CC3)cc2F)N1CC(F)F (stereo partly drawn) [Compound B233, 6-(1-(4-(4-((1R,3R)-2-(2,2-difluoroethyl)-3-methyl-2,3,4,9-tetrahydro-1H-pyrido[3,4-b]indol-1-yl)-3-fluorophenyl)cyclohexane-1-carbonyl)piperidin-4-yl)-2-(2,6-dioxopiperidin-3-yl)-6,7-dihydropyrrolo[3,4-f]isoindole-1,3(2H,5H)-dione] | B (“B”: 10-100 nM)
14 | C[C@@H]1Cc2c([nH]c3ccccc23)[C@@H](c2ccc(C3CCC(C(=O)N4CCC(N5Cc6cc7c(cc6C5)C(=O)N(C5CCC(=O)NC5=O)C7=O)CC4)CC3)cn2)N1CC(F)F (stereo partly drawn) [Compound B234, 6-(1-(4-(6-((1S,3R)-2-(2,2-difluoroethyl)-3-methyl-2,3,4,9-tetrahydro-1H-pyrido[3,4-b]indol-1-yl)pyridin-3-yl)cyclohexane-1-carbonyl)piperidin-4-yl)-2-(2,6-dioxopiperidin-3-yl)-6,7-dihydropyrrolo[3,4-f]isoindole-1,3(2H,5H)-dione] | C (“C”: >100 nM)
15 | C[C@@H]1Cc2c([nH]c3ccccc23)[C@@H](c2ccc(C3=CCC(C(=O)N4CCC(N5Cc6cc7c(cc6C5)C(=O)N(C5CCC(=O)NC5=O)C7=O)CC4)CC3)nc2)N1CC(F)F (stereo partly drawn) [Compound B235, 6-(1-(4-(5-((1R,3R)-2-(2,2-difluoroethyl)-3-methyl-2,3,4,9-tetrahydro-1H-pyrido[3,4-b]indol-1-yl)pyridin-2-yl)cyclohex-3-ene-1-carbonyl)piperidin-4-yl)-2-(2,6-dioxopiperidin-3-yl)-6,7-dihydropyrrolo[3,4-f]isoindole-1,3(2H,5H)-dione] | C (“C”: >100 nM)
16 | C[C@@H]1Cc2c([nH]c3ccccc23)[C@@H](c2cnc(C3=CCC(C(=O)N4CCC(N5Cc6cc7c(cc6C5)C(=O)N(C5CCC(=O)NC5=O)C7=O)CC4)CC3)nc2)N1CC(F)F (stereo partly drawn) [Compound B236, 6-(1-(4-(5-((1R,3R)-2-(2,2-difluoroethyl)-3-methyl-2,3,4,9-tetrahydro-1H-pyrido[3,4-b]indol-1-yl)pyrimidin-2-yl)cyclohex-3-ene-1-carbonyl)piperidin-4-yl)-2-(2,6-dioxopiperidin-3-yl)-6,7-dihydropyrrolo[3,4-f]isoindole-1,3(2H,5H)-dione] | B (“B”: 10-100 nM)
